Row | Compound | melting point [°C]
1 | CC1(C)C(=O)Oc2ccc(C#N)cc21 | 138 to 140
2 | COc1cc(N)c2nccc(C)c2c1Oc1ccc(F)cc1 | 143 to 144
3 | CCCC(=NOCC)C1=C(O)CC(c2c(OC)nc(C)c3c2CCCC3=O)CC1=O (configuration not stated) | 162
4 | CC(C)Oc1cc(C(C)C)c2c(c1)S(=O)(=O)N(c1c(F)c(F)nc(F)c1F)C2=O | 130
5 | O=c1[nH]c2cc(Sc3cccc4cnccc34)c([N+](=O)[O-])cc2[nH]1 | > 270
6 | COc1cncc(OC)c1C(=O)Nc1ccc(C[C@H](NC(=O)Nc2ccccc2S(=O)(=O)c2ccccc2)C(=O)O)cc1 | 196
7 | CCOC(=O)C1=Cc2cccc(C(F)(F)F)c2OCC1 | 57 to 59
8 | Cc1c(Cc2ccc([N+](=O)[O-])cc2)c(=O)oc2cc(OCc3nnn[nH]3)cc(OCc3nnn[nH]3)c12 | 240 to 244
9 | CCCCOC(=O)CN1CCC(NC(=O)OC(C)(C)C)CC1 | 116
10 | COc1ccc(C(=O)Nc2ccccc2S(C)(=O)=O)cc1OC1CCCC1 | 119 to 121
11 | CN(CCc1ccccc1)C(=O)Cn1cc(C=CC=CC(=O)O)c2cc(OCc3ccccc3)ccc21 | 189 to 190
12 | CC(C=Cc1c(C)cc(C)c(C)c1C)=CC=CC(C)=CC(=O)O | 201 to 202
13 | CC(C)(C)c1nc(-c2nnc(NC(=N)N)s2)nc(C(C)(C)C)c1O | 277
14 | CCN(CC)CCOc1ccc(-c2nnc(CSCCOc3ccccc3)o2)cc1 | 32 to 35
15 | CCN(CC)C(=O)COc1cccc(-n2nc(-c3ccc(F)cc3)c3cccnc32)c1 | 102 to 105
16 | CCCn1nnn(-c2cc(OCC#CI)c(Cl)cc2Cl)c1=O | 134 to 138
17 | NS(=O)(=O)c1cccc(NC(=O)c2cnn3c(C(F)F)cc(-c4ccc(C(F)(F)F)c(F)c4)nc23)c1 | 262
18 | CC1CC2=CC(=O)CCC2C2C(F)CC3(C)C(O)CCC3C12 (configuration not stated) | 127
19 | COc1cc2c(cc1OC)[C@@H]1CN(C)CC[C@@H]1N=C2c1ccc(NC(C)=O)cc1 (relative stereo) | 173 to 175
20 | CC(=O)N1CC(Oc2c(C)cccc2C)C1 | 40 to 42.5
21 | Cc1ccc2nc(-c3ccccc3)cc(Cl)c2c1 | 90 to 93
22 | COCCOCCOC(=O)C1C=Nc2c(ccc3cccnc23)C1=O (configuration not stated) | 164 to 165
23 | N#CC1(c2ccc(OCc3ccc(F)cc3)c(OC3CCCC3)c2)CCC(=O)CC1 | 145 to 146
24 | O=C(c1cc(Cc2c[nH]cn2)ccc1O)N1CCCC1 | 96 to 98
25 | Nc1ncccc1OCc1ccccc1Cl | 95 to 100

Row | Compound | melting point [°C]
26 | O=C(Nc1ccc(C(F)(F)F)cc1)Nc1ccc2c(c1)COC2=O | 297 to 307
27 | Cc1[nH]c(-c2ccccc2)c(NC(=O)CN2C(=O)c3ccccc3C2=O)c1C(=O)c1ccccc1 | 288 to 290
28 | CC(C)(C)OC(=O)Nc1ccc(-c2ccc(OCc3ccccc3)nc2)cc1N | 176 to 177
29 | CCNC(C)c1cc(S(N)(=O)=O)sc1S(=O)(=O)CC (configuration not stated) | 135 to 138
30 | CCC1Cc2c(O)cc(OC)cc2C(=O)O1 (configuration not stated) | 167 to 168
31 | COc1ccc(C(=O)CC(O)C(=O)O)cc1OC (configuration not stated) | 106 to 108
32 | Brc1cccc(-c2cc3nccnc3[nH]2)c1 | 247 to 249
33 | CC(C)c1cccc(C(C)C)c1NC(=O)C(C)(C)CCCOc1ccc2c(c1)C=C(c1nccn1C)C(CCc1ccccc1)O2 (racemic) | 108 to 110
34 | CN1OC(CNc2ccccc2)CC1(Cn1ccnc1)c1ccc(Cl)cc1 (configuration not stated) | 159 to 160
35 | O=C(Nc1ccc(O)cc1O)c1cc(Cl)c(O)c(Cl)c1 | 235 to 237
36 | COc1ccc(C)c2nc(Cc3ccc(Cl)cc3)[nH]c12 | 195 to 197
37 | COc1c(CC(=O)O)cccc1Oc1ccccc1C | 90 to 92
38 | CN1CCN(c2ccc3c(c2)NC(=O)C(C)(c2ccc(N)cc2)C3=O)CC1 (configuration not stated) | 265 to 267
39 | Cc1ccc(C(=O)NC(NC(=NC#N)Nc2ccc(Cl)nc2)C(C)(C)C)cc1 (configuration not stated) | 194 to 196
40 | N#CCc1cn(Cc2ccc(OCc3ccccc3)cc2)nc1-c1ccc(F)cc1 | 86 to 87
41 | CCCc1c(OCCCCCCc2ccc(O)c(O)c2Cl)ccc(C(=O)O)c1O | 145 to 146
42 | N#CCn1nnc2cc3c(cc2c1=O)OC1CCCN1C3=O (configuration not stated) | 210 to 212
43 | CC1(C)OC(=O)Nc2ccc(-c3cc(F)cc(F)c3)cc21 | 218 to 219
44 | CC(O)C#Cc1ccc(Cl)cc1 (configuration not stated) | 71 to 72
45 | COCCn1nc(-c2cc(C(C)(C)C)c(O)c(C(C)(C)C)c2)c2cccnc21 | 111 to 113
46 | CN(C)C(=O)Nc1ccc(S(=O)(=O)CCc2ccccc2)c(Cl)c1 | 136 to 138
47 | Cc1coc(NC(=S)Nc2ccc(Cl)cc2C)n1 | 214
48 | COC(=O)Nc1ccc(NC(=O)CN(C)C)c(N)c1 | 140 to 142
49 | Cc1nc(-c2ccc(Cl)cc2)n[nH]1 | 173 to 175
50 | O[C@@H]1CN(Cc2ccccc2)C[C@H]1Oc1c(Cl)cccc1Cl (relative stereo) | 78 to 80

Row | Compound | melting point [°C]
51 | CN(C)C=Nc1cccc2nc(N3CCN(C)CC3)c(N3CCN(C)CC3)nc12 | 183 to 186
52 | CC(OC(=O)c1ccccc1)C(N)=S (configuration not stated) | 100 to 101
53 | CC(C)N(C(=O)CN1C(=O)CC(=O)N(c2ccccc2)c2ccccc21)c1ccccc1 | 199 to 200
54 | CC(C)(C)n1nnc(-c2ccccc2-c2cccc3ccccc23)n1 | 83 to 85
55 | NC(=O)c1cccc(-c2ccc3nnn(Cc4ccc5ncccc5c4)c3n2)c1 | 263 to 265
56 | CC(=O)N(C)CCCC(=O)OC1c2ccccc2C(=O)N1c1ccc2ccc(Cl)nc2n1 (configuration not stated) | 170
57 | NC(=O)N(O)Cc1sccc1Sc1ccc(Br)cc1 | 124 to 126
58 | Cn1ncc(/C=C/C(=O)Nc2ccc(Cc3nnco3)cc2)c1-c1ccc(F)cc1 | 223 to 224
59 | COCCOCCOc1cccc2c1C1(COc3cc4c(cc31)OCCO4)C(=O)N2C (configuration not stated) | 109 to 110
60 | COn1c(=S)n(C)c(=O)c2ccccc21 | 184
61 | CCOCCOCCn1ccc2c3c(c(-c4ccccc4Cl)cc21)C(=O)NC3=O | 173
62 | COc1ccc2oc3ccc(Br)cc3c2c1C(=O)Nc1ccncc1 | 270 to 273
63 | COc1cc(C)c([N+](=O)[O-])cc1C(=O)NCC1CCCO1 (configuration not stated) | 178 to 180
64 | COc1ccc(S(=O)(=O)N2c3cc(F)ccc3-c3ccc(F)cc3C2C)cc1 (configuration not stated) | 141 to 143
65 | O=C(O)c1ccc(NCc2ccccc2)cc1 | 165 to 168
66 | CNc1nc(NC)c2ncn(COC(CO)CO)c2n1 | 198
67 | Cc1cccc(-c2[nH]c(C(C)C)nc2-c2cccc(-c3ccc(S(=O)(=O)N4CCN(C)CC4)cc3)c2)n1 | 110 to 116
68 | O=C(Nc1ccc(O)cc1)C(=O)N1CCC(Cc2ccc(F)cc2)CC1 | 98 to 100
69 | O=C(NCCc1c2n(c3ccc(O)nc13)CCCc1ccccc1-2)c1ccco1 | > 260
70 | CCCc1nn(-c2ccc(C(F)(F)F)cn2)cc1CCCOc1ccc(CC(=O)O)cc1 | 101 to 102
71 | O=C(NCCN1CC=C(n2c(=O)[nH]c3ccccc32)CC1)c1ccc(F)cc1 | 203
72 | Cc1sc(N)c(C(=O)c2ccccn2)c1C | 136 to 139
73 | Cc1c(C(N)=O)c2ccccc2n2c(N3CCCC3)nc(-c3noc(C4CC4)n3)c12 | 206 to 209
74 | COC(=O)c1ccc(I)cc1Nc1ccccc1C(=O)O | 206 to 208
75 | COC(=O)c1ccc(NC(=O)c2cc(C(C)C)c(C(C)C)o2)cc1Cl | 123 to 124

Row | Compound | melting point [°C]
76 | O=C(NCc1cc(C(F)(F)F)cc(C(F)(F)F)c1)c1ccccc1-c1ccccc1 | 86 to 87
77 | CN1CCN(c2ccnc3sc(C(N)=O)c(N)c23)CC1 | 260 to 263
78 | COC(=O)c1ccc2c(c1)N(C(=O)c1ccc(C3CCCCC3)cc1)Cc1cccn1C2 | 174 to 176
79 | COc1cnc(NCCCOc2cccc(CN3CCCCC3)c2)[nH]c1=O | 148 to 150
80 | COC(=O)CNC(=O)[C@H](CSC(=O)c1ccccc1)NC(=O)CNC(=S)CC(=O)c1ccccc1 | 181 to 183
81 | COc1cc2c(N3CCN(C(=O)Nc4ccc(Oc5ccccc5)cc4)CC3)ncnc2cc1OCc1ccccc1 | 220 to 221
82 | CCCOC(=O)N1CCN(C(=O)c2cc(S(=O)(=O)N(C)C)ccc2N)CC1 | 174 to 176
83 | O=C(NCCCCN1CCN(c2csc3cc(F)ccc23)CC1)c1ccc(F)cc1 | 161 to 163
84 | CN(C)C=NS(=O)(=O)c1cc(CCNC(=O)C(F)(F)F)ccc1O | 160 to 161
85 | COC(=O)C1=C(CF)NC(C)=C(C(=O)OC(C)C)C1c1c(F)cccc1C(F)(F)F (configuration not stated) | 82 to 84
86 | [N-]=[N+]=CC(=O)c1cccc(S(N)(=O)=O)c1 | 142
87 | CCCCOCCc1ccc(C2=CCC(c3ccc(Br)cc3)CC2)cc1 (configuration not stated) | 86.5 to 89.5
88 | COc1cc(C(=O)c2nc3ccccc3[nH]2)cc([N+](=O)[O-])c1OC | 212 to 213
89 | O=C(Nc1ccc(Cl)c(Cl)c1)O[C@H]1COC(c2ccccc2)=N[C@@H]1c1ccccc1 (racemic) | 184
90 | CCCOc1ncc(C#C[Si](C)(C)C)cc1-c1nc2c(CC)nn(CCN3CCOCC3)c2c(=O)[nH]1 | 132 to 134
91 | OC(CCN1CCC(c2ccc(F)cc2)CC1)c1ccc(Cc2ccc(Cl)cc2)cc1 (configuration not stated) | 94 to 95
92 | Cn1c(COc2ccc(CC3SC(=O)N(C(c4ccccc4)(c4ccccc4)c4ccccc4)C3=O)cc2)nc2ccc(Oc3ccc(C#N)cc3)cc21 (configuration not stated) | 135 to 138
93 | Cn1nc(N)nc1NCCCOc1cccc(CNCC(F)(F)F)c1 | 62 to 64
94 | COc1ccccc1N(CC(=O)N(C)c1ccccc1)C(=O)CNC(=O)Nc1cccc(C)c1 | 212
95 | CC(=O)Oc1ccc(C(=O)Oc2ccc(OC(=O)c3ccc(OC(C)=O)cc3)c(C)c2)cc1 | 128 to 130
96 | Cc1cc(O)nn1-c1ccc(Cl)c(Cl)c1 | 208 to 211
97 | Cc1cc(C)cc(Nc2ccc(Nc3ccccc3)c3c2C(=O)c2ccccc2C3=O)c1 | 220

From a melting point compilation (Tetko et al.; mined from patent text by program, amines drawn as free bases though some values may be those of a salt)
